# Measured values reported in PubChem BioAssay (NCI).
#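 Protocol summary: plate cells (96-well), add compound at 5 concentrations, incubate 48 h, interpolate endpoints linearly. TGI marks complete inhibition of growth.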
# How the values were obtained:
# Experiment in all cases: NCI anticancer screen, dose series, 48 h
# RPMI-8226 leukemia = test system: RPMI-8226 leukemia
# SF-268 CNS = test system: SF-268 CNS
# SK-MEL-2 melanoma = test system: SK-MEL-2 melanoma
# SN12C renal = test system: SN12C renal
# A549 NSCLC = test system: A549 NSCLC
# NCI-H23 lung = test system: NCI-H23 lung
# NCI/ADR-RES ovarian = test system: NCI/ADR-RES ovarian
# MOLT-4 leukemia = test system: MOLT-4 leukemia
# SR leukemia = test system: SR leukemia
# HCT-116 colon = test system: HCT-116 colon
# EKVX NSCLC = test system: EKVX NSCLC
# IGROV1 ovarian = test system: IGROV1 ovarian
# ACHN renal = test system: ACHN renal
# SK-OV-3 ovarian = test system: SK-OV-3 ovarian
# OVCAR-4 ovarian = test system: OVCAR-4 ovarian
# MDA-N = test system: MDA-N
# COLO 205 colon = test system: COLO 205 colon
# TK-10 renal = test system: TK-10 renal
# HOP-62 NSCLC = test system: HOP-62 NSCLC
# A498 renal = test system: A498 renal
# KM12 colon = test system: KM12 colon
# SW-620 colon = test system: SW-620 colon
# MCF7 breast = test system: MCF7 breast
# UACC-257 melanoma = test system: UACC-257 melanoma
# HOP-92 NSCLC = test system: HOP-92 NSCLC
# MALME-3M melanoma = test system: MALME-3M melanoma
# MDA-MB-435 = test system: MDA-MB-435
# MDA-MB-231 breast = test system: MDA-MB-231 breast
# HT29 colon = test system: HT29 colon
# DU-145 prostate = test system: DU-145 prostate
# HS 578T breast = test system: HS 578T breast
# OVCAR-5 ovarian = test system: OVCAR-5 ovarian
# K-562 leukemia = test system: K-562 leukemia
# 786-0 renal = test system: 786-0 renal
# SK-MEL-5 melanoma = test system: SK-MEL-5 melanoma
# M14 melanoma = test system: M14 melanoma
# SK-MEL-28 melanoma = test system: SK-MEL-28 melanoma
# UO-31 renal = test system: UO-31 renal
# SNB-19 CNS = test system: SNB-19 CNS
# NCI-H226 lung = test system: NCI-H226 lung
# HCT-15 colon = test system: HCT-15 colon
# SF-295 CNS = test system: SF-295 CNS
# LOX IMVI melanoma = test system: LOX IMVI melanoma
# OVCAR-3 ovarian = test system: OVCAR-3 ovarian
# OVCAR-8 ovarian = test system: OVCAR-8 ovarian
# CCRF-CEM leukemia = test system: CCRF-CEM leukemia
# U251 CNS = test system: U251 CNS
# PC-3 prostate = test system: PC-3 prostate
# UACC-62 melanoma = test system: UACC-62 melanoma
# SNB-75 CNS = test system: SNB-75 CNS
# BT-549 breast = test system: BT-549 breast
# HCC-2998 colon = test system: HCC-2998 colon
# NCI-H460 lung = test system: NCI-H460 lung
# NCI-H522 lung = test system: NCI-H522 lung
# CAKI-1 renal = test system: CAKI-1 renal
# HL-60(TB) leukemia = test system: HL-60(TB) leukemia
# T-47D breast = test system: T-47D breast
# RXF 393 renal = test system: RXF 393 renal
# SF-539 CNS = test system: SF-539 CNS
structure (smiles),measurement,setting,value
Cc1ccc(/C=C2\NC(=S)N(CN3CCOCC3)C2=O)cc1,TGI,RPMI-8226 leukemia,> 100 µM
same,TGI,SF-268 CNS,> 100 µM
same,TGI,SK-MEL-2 melanoma,> 100 µM
same,TGI,SN12C renal,> 100 µM
same,TGI,A549 NSCLC,> 100 µM
same,TGI,NCI-H23 lung,> 100 µM
same,TGI,NCI/ADR-RES ovarian,> 100 µM
same,TGI,MOLT-4 leukemia,> 100 µM
same,TGI,SR leukemia,> 100 µM
same,TGI,HCT-116 colon,> 100 µM
same,TGI,EKVX NSCLC,> 100 µM
same,TGI,IGROV1 ovarian,> 100 µM
same,TGI,ACHN renal,> 100 µM
same,TGI,SK-OV-3 ovarian,> 100 µM
same,TGI,OVCAR-4 ovarian,> 100 µM
same,TGI,MDA-N,> 100 µM
same,TGI,COLO 205 colon,> 100 µM
same,TGI,TK-10 renal,> 100 µM
same,TGI,HOP-62 NSCLC,> 100 µM
same,TGI,A498 renal,> 100 µM
same,TGI,KM12 colon,> 100 µM
same,TGI,SW-620 colon,> 100 µM
same,TGI,MCF7 breast,> 100 µM
same,TGI,UACC-257 melanoma,> 100 µM
same,TGI,HOP-92 NSCLC,> 100 µM
same,TGI,MALME-3M melanoma,> 100 µM
same,TGI,MDA-MB-435,> 100 µM
same,TGI,MDA-MB-231 breast,> 100 µM
same,TGI,HT29 colon,> 100 µM
same,TGI,DU-145 prostate,> 100 µM
same,TGI,HS 578T breast,> 100 µM
same,TGI,OVCAR-5 ovarian,> 100 µM
same,TGI,K-562 leukemia,> 100 µM
same,TGI,786-0 renal,> 100 µM
same,TGI,SK-MEL-5 melanoma,> 100 µM
same,TGI,M14 melanoma,> 100 µM
same,TGI,SK-MEL-28 melanoma,> 100 µM
same,TGI,UO-31 renal,> 100 µM
same,TGI,SNB-19 CNS,> 100 µM
same,TGI,NCI-H226 lung,> 100 µM
same,TGI,HCT-15 colon,> 100 µM
same,TGI,SF-295 CNS,> 100 µM
same,TGI,LOX IMVI melanoma,> 100 µM
same,TGI,OVCAR-3 ovarian,> 100 µM
same,TGI,OVCAR-8 ovarian,> 100 µM
same,TGI,CCRF-CEM leukemia,> 100 µM
same,TGI,U251 CNS,> 100 µM
same,TGI,PC-3 prostate,> 100 µM
same,TGI,UACC-62 melanoma,> 100 µM
same,TGI,SNB-75 CNS,> 100 µM
Cn1c(N2CCCC2)c(C=O)c(=O)n(C)c1=O,TGI,RPMI-8226 leukemia,> 100 µM
same,TGI,SF-268 CNS,> 100 µM
same,TGI,SK-MEL-2 melanoma,> 100 µM
same,TGI,SN12C renal,> 100 µM
same,TGI,A549 NSCLC,> 100 µM
same,TGI,NCI-H23 lung,> 100 µM
same,TGI,NCI/ADR-RES ovarian,> 100 µM
same,TGI,MOLT-4 leukemia,> 100 µM
same,TGI,HCT-116 colon,> 100 µM
same,TGI,EKVX NSCLC,> 100 µM
same,TGI,IGROV1 ovarian,> 100 µM
same,TGI,BT-549 breast,> 100 µM
same,TGI,ACHN renal,> 100 µM
same,TGI,SK-OV-3 ovarian,> 100 µM
same,TGI,OVCAR-4 ovarian,> 100 µM
same,TGI,MDA-N,> 100 µM
same,TGI,HCC-2998 colon,> 100 µM
same,TGI,COLO 205 colon,> 100 µM
same,TGI,TK-10 renal,> 100 µM
same,TGI,HOP-62 NSCLC,> 100 µM
same,TGI,A498 renal,> 100 µM
same,TGI,KM12 colon,> 100 µM
same,TGI,SW-620 colon,> 100 µM
same,TGI,NCI-H460 lung,> 100 µM
same,TGI,MCF7 breast,> 100 µM
same,TGI,NCI-H522 lung,> 100 µM
same,TGI,CAKI-1 renal,> 100 µM
same,TGI,HL-60(TB) leukemia,> 100 µM
same,TGI,UACC-257 melanoma,> 100 µM
same,TGI,HOP-92 NSCLC,> 100 µM
same,TGI,MALME-3M melanoma,> 100 µM
same,TGI,MDA-MB-435,> 100 µM
same,TGI,T-47D breast,> 100 µM
same,TGI,MDA-MB-231 breast,> 100 µM
same,TGI,HT29 colon,> 100 µM
same,TGI,DU-145 prostate,> 100 µM
same,TGI,HS 578T breast,> 100 µM
same,TGI,OVCAR-5 ovarian,> 100 µM
same,TGI,K-562 leukemia,> 100 µM
same,TGI,786-0 renal,> 100 µM
same,TGI,SK-MEL-5 melanoma,> 100 µM
same,TGI,M14 melanoma,> 100 µM
same,TGI,SK-MEL-28 melanoma,> 100 µM
same,TGI,UO-31 renal,> 100 µM
same,TGI,SNB-19 CNS,> 100 µM
same,TGI,NCI-H226 lung,> 100 µM
same,TGI,HCT-15 colon,> 100 µM
same,TGI,SF-295 CNS,> 100 µM
same,TGI,LOX IMVI melanoma,> 100 µM
same,TGI,RXF 393 renal,> 100 µM
same,TGI,OVCAR-3 ovarian,> 100 µM
same,TGI,OVCAR-8 ovarian,> 100 µM
same,TGI,CCRF-CEM leukemia,> 100 µM
same,TGI,U251 CNS,> 100 µM
same,TGI,SF-539 CNS,> 100 µM
same,TGI,PC-3 prostate,> 100 µM
same,TGI,UACC-62 melanoma,> 100 µM
same,TGI,SNB-75 CNS,93 µM
